PubChem BioAssay (NCI)
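All cell lines were grown in 96-well plates and treated with compound for 48 hours. GI50 is the concentration that inhibits growth by half. TGI marks complete inhibition of growth.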

What was measured:
Test in all cases: NCI-60 cell line screen, 48 h
RPMI-8226 leukemia = test system: RPMI-8226 leukemia
CCRF-CEM leukemia = test system: CCRF-CEM leukemia
ACHN renal = test system: ACHN renal
HS 578T breast = test system: HS 578T breast
SK-MEL-28 melanoma = test system: SK-MEL-28 melanoma
UACC-257 melanoma = test system: UACC-257 melanoma
EKVX NSCLC = test system: EKVX NSCLC
MALME-3M melanoma = test system: MALME-3M melanoma
K-562 leukemia = test system: K-562 leukemia
SK-OV-3 ovarian = test system: SK-OV-3 ovarian
NCI-H226 lung = test system: NCI-H226 lung
COLO 205 colon = test system: COLO 205 colon
DU-145 prostate = test system: DU-145 prostate
SK-MEL-5 melanoma = test system: SK-MEL-5 melanoma
BT-549 breast = test system: BT-549 breast
HT29 colon = test system: HT29 colon
OVCAR-5 ovarian = test system: OVCAR-5 ovarian
HOP-62 NSCLC = test system: HOP-62 NSCLC
NCI-H23 lung = test system: NCI-H23 lung
SF-268 CNS = test system: SF-268 CNS
HCT-15 colon = test system: HCT-15 colon
UO-31 renal = test system: UO-31 renal
OVCAR-8 ovarian = test system: OVCAR-8 ovarian
RXF 393 renal = test system: RXF 393 renal
MOLT-4 leukemia = test system: MOLT-4 leukemia
HOP-92 NSCLC = test system: HOP-92 NSCLC
MDA-MB-435 = test system: MDA-MB-435
UACC-62 melanoma = test system: UACC-62 melanoma
786-0 renal = test system: 786-0 renal
NCI-H522 lung = test system: NCI-H522 lung
A498 renal = test system: A498 renal
IGROV1 ovarian = test system: IGROV1 ovarian
HCC-2998 colon = test system: HCC-2998 colon
MDA-MB-231 breast = test system: MDA-MB-231 breast
CAKI-1 renal = test system: CAKI-1 renal
SR leukemia = test system: SR leukemia
LOX IMVI melanoma = test system: LOX IMVI melanoma
T-47D breast = test system: T-47D breast
M14 melanoma = test system: M14 melanoma
SNB-75 CNS = test system: SNB-75 CNS
OVCAR-4 ovarian = test system: OVCAR-4 ovarian
SW-620 colon = test system: SW-620 colon
U251 CNS = test system: U251 CNS
SNB-19 CNS = test system: SNB-19 CNS
SF-539 CNS = test system: SF-539 CNS
SN12C renal = test system: SN12C renal
PC-3 prostate = test system: PC-3 prostate
A549 NSCLC = test system: A549 NSCLC
SF-295 CNS = test system: SF-295 CNS
TK-10 renal = test system: TK-10 renal
NCI/ADR-RES ovarian = test system: NCI/ADR-RES ovarian
KM12 colon = test system: KM12 colon
NCI-H460 lung = test system: NCI-H460 lung
MCF7 breast = test system: MCF7 breast
SK-MEL-2 melanoma = test system: SK-MEL-2 melanoma
HCT-116 colon = test system: HCT-116 colon
OVCAR-3 ovarian = test system: OVCAR-3 ovarian
HL-60(TB) leukemia = test system: HL-60(TB) leukemia

Structure (SMILES): O=C(Nc1ccc(F)cc1F)c1cc(I)ccc1O
- GI50 (RPMI-8226 leukemia): 2.5 µM
- TGI (RPMI-8226 leukemia): 8.96 µM
- GI50 (CCRF-CEM leukemia): 4.05 µM
- TGI (CCRF-CEM leukemia): > 100 µM
- GI50 (ACHN renal): 2.5 µM
- TGI (ACHN renal): 7.62 µM
- GI50 (HS 578T breast): 2.37 µM
- TGI (HS 578T breast): 8.07 µM
- GI50 (SK-MEL-28 melanoma): 1.93 µM
- TGI (SK-MEL-28 melanoma): 6.84 µM
- GI50 (UACC-257 melanoma): 2.09 µM
- TGI (UACC-257 melanoma): 7.09 µM
- GI50 (EKVX NSCLC): 2.19 µM
- TGI (EKVX NSCLC): 9.14 µM
- GI50 (MALME-3M melanoma): 2.08 µM
- TGI (MALME-3M melanoma): 6.45 µM
- GI50 (K-562 leukemia): 3.16 µM
- TGI (K-562 leukemia): > 100 µM
- GI50 (SK-OV-3 ovarian): 1.12 µM
- TGI (SK-OV-3 ovarian): 4.27 µM
- GI50 (NCI-H226 lung): 2.46 µM
- TGI (NCI-H226 lung): 15.8 µM
- GI50 (COLO 205 colon): 5.95 µM
- TGI (COLO 205 colon): 21.7 µM
- GI50 (DU-145 prostate): 3.87 µM
- TGI (DU-145 prostate): > 100 µM
- GI50 (SK-MEL-5 melanoma): 1.7 µM
- TGI (SK-MEL-5 melanoma): 3.35 µM
- GI50 (BT-549 breast): 1.99 µM
- TGI (BT-549 breast): 5.16 µM
- GI50 (HT29 colon): 4.06 µM
- TGI (HT29 colon): > 100 µM
- GI50 (OVCAR-5 ovarian): 3.72 µM
- TGI (OVCAR-5 ovarian): > 100 µM
- GI50 (HOP-62 NSCLC): 2.42 µM
- TGI (HOP-62 NSCLC): 7.87 µM
- GI50 (NCI-H23 lung): 2.72 µM
- TGI (NCI-H23 lung): 10.4 µM
- GI50 (SF-268 CNS): 3 µM
- TGI (SF-268 CNS): 47.4 µM
- GI50 (HCT-15 colon): 3.27 µM
- TGI (HCT-15 colon): 45.5 µM
- GI50 (UO-31 renal): 1.63 µM
- TGI (UO-31 renal): 6.11 µM
- GI50 (OVCAR-8 ovarian): 3.23 µM
- TGI (OVCAR-8 ovarian): > 100 µM
- GI50 (RXF 393 renal): 2.5 µM
- TGI (RXF 393 renal): 7 µM
- GI50 (MOLT-4 leukemia): 3.15 µM
- TGI (MOLT-4 leukemia): 16.3 µM
- GI50 (HOP-92 NSCLC): 1.2 µM
- TGI (HOP-92 NSCLC): 4.65 µM
- GI50 (MDA-MB-435): 3.02 µM
- TGI (MDA-MB-435): 10.1 µM
- GI50 (UACC-62 melanoma): 1.46 µM
- TGI (UACC-62 melanoma): 4.49 µM
- GI50 (786-0 renal): 3.13 µM
- TGI (786-0 renal): 9.7 µM
- GI50 (NCI-H522 lung): 2.73 µM
- TGI (NCI-H522 lung): 14.1 µM
- GI50 (A498 renal): 1.45 µM
- TGI (A498 renal): 3.31 µM
- GI50 (IGROV1 ovarian): 2.4 µM
- TGI (IGROV1 ovarian): > 100 µM
- GI50 (HCC-2998 colon): 3.73 µM
- TGI (HCC-2998 colon): 47 µM
- GI50 (MDA-MB-231 breast): 1.87 µM
- TGI (MDA-MB-231 breast): 5.8 µM
- GI50 (CAKI-1 renal): 1.92 µM
- TGI (CAKI-1 renal): 6.49 µM
- GI50 (SR leukemia): 3.05 µM
- TGI (SR leukemia): > 100 µM
- GI50 (LOX IMVI melanoma): 3.31 µM
- TGI (LOX IMVI melanoma): 17.6 µM
- GI50 (T-47D breast): 1.99 µM
- TGI (T-47D breast): 6.8 µM
- GI50 (M14 melanoma): 2.21 µM
- TGI (M14 melanoma): 8.05 µM
- GI50 (SNB-75 CNS): 1.36 µM
- TGI (SNB-75 CNS): 4.58 µM
- GI50 (OVCAR-4 ovarian): 2.49 µM
- GI50 (SW-620 colon): 3.39 µM
- TGI (SW-620 colon): 90.7 µM
- GI50 (U251 CNS): 3.07 µM
- TGI (U251 CNS): > 100 µM
- GI50 (SNB-19 CNS): 3.11 µM
- TGI (SNB-19 CNS): > 100 µM
- GI50 (SF-539 CNS): 2.83 µM
- TGI (SF-539 CNS): 10.2 µM
- GI50 (SN12C renal): 2.46 µM
- TGI (SN12C renal): 8.54 µM
- GI50 (PC-3 prostate): 2.53 µM
- TGI (PC-3 prostate): 8.73 µM
- GI50 (A549 NSCLC): 3.1 µM
- TGI (A549 NSCLC): > 100 µM
- GI50 (SF-295 CNS): 1.95 µM
- TGI (SF-295 CNS): 3.94 µM
- GI50 (TK-10 renal): 4.73 µM
- TGI (TK-10 renal): 31.1 µM
- GI50 (NCI/ADR-RES ovarian): 2.92 µM
- TGI (NCI/ADR-RES ovarian): 33.1 µM
- GI50 (KM12 colon): 2.93 µM
- TGI (KM12 colon): 9.53 µM
- GI50 (NCI-H460 lung): 3.13 µM
- TGI (NCI-H460 lung): > 100 µM
- GI50 (MCF7 breast): 2.77 µM
- TGI (MCF7 breast): > 100 µM
- GI50 (SK-MEL-2 melanoma): 2.29 µM
- TGI (SK-MEL-2 melanoma): 6.07 µM
- GI50 (HCT-116 colon): 2.53 µM
- TGI (HCT-116 colon): 7.6 µM
- GI50 (OVCAR-3 ovarian): 3.13 µM
- TGI (OVCAR-3 ovarian): 23.2 µM
- GI50 (HL-60(TB) leukemia): 3.08 µM
- TGI (HL-60(TB) leukemia): 9.13 µM
